Patent US11299475B2, “Prostacyclin receptor agonist” (MEDSHINE DISCOVERY INC., priority 2018, dated 2022)

Each compound was assayed against T1, PGI2 receptor (Homo sapiens, UniProt P43119) (assay: PGI2 cAMP cell assay in vitro (HTRF cAMP)). Conditions: cells in vitro.
T1 construct: host or cells: thawed 'PGI2 cell' suspension
Assay type: cell-based
Method: PGI2 cAMP Cell Assay In Vitro:
A series of cells were placed in a 37° C. water bath for rapid thawing, and the cell suspension was transferred to a 15 mL centrifuge tube containing 10 mL HBSS, and mixed uniformly. The cells were centrifuged at 1000 rpm for 5 minutes at room temperature. The supernatant was removed after centrifugation.
The centrifuge tube was tapped gently to suspend the cells after centrifugation, then the cells were re-suspended with 10 mL HBSS (Hanks buffered saline solution) and mixed uniformly by pipetting up and down. The cells were counted by Vi-cell. The cells were centrifuged for the second time at 1000 rpm for 5 minutes. The cells were re-suspended by experimental buffer to reach a cell concentration of 1.5×10^5/mL.
The samples were diluted with the Bravo automated liquid handling platform to make the initial concentration of the sample reach 2 mM and 5-fold serial dilution at 10 points. The control sample was diluted with Bravo to make the initial concentration of the sample reach 2 mM and 5-fold serial dilution at 10 points.
50 nL DMSO or sample to be tested was transferred to PE384-well OptiPlate by Echo. The cell suspension was transferred to the testing plate by electric pipette, 10 μL cells/well. The testing plate was centrifuged at 1000 rpm […]. The testing plate was incubated at room temperature for 60 minutes. Two kinds of test reagents were added to the testing plate, 5 µL/well. The testing plate was centrifuged at 1000 rpm for 1 minute. The experimental plate was sealed with Top Seal-A film and incubated at room temperature for 60 minutes. TopSeal-A was removed and the value was read on EnVision.

T1 sequence (P43119 whole entry, species assumed): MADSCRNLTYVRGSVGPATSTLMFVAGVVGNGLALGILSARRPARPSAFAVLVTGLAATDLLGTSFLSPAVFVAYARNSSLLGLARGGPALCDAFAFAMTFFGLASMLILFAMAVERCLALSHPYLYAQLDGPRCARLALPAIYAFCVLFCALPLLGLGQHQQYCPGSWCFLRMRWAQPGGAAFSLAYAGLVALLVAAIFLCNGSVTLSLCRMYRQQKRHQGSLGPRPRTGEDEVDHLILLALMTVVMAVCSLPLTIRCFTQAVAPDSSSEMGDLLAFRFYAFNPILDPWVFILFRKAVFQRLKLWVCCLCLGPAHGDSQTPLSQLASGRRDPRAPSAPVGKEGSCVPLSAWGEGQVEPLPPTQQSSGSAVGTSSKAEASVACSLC

Question: COC(c1ccccc1)(c1ccccc1)c1cncc(N2CCC(F)(COCC(=O)O)CC2)n1 [Compound 51] was tested. Which EC50 did it give?
Answer: 322 nM

Question: How did the EC50 turn out when O=C(O)COCC1(F)CCN(c2cncc(N(c3ccccc3)c3cc(Cl)ccn3)n2)CC1 [Compound 44] was run?
Answer: 1.98 nM

Question: For CS(=O)(=O)NC(=O)COCC1(F)CCN(c2cncc(N(c3ccccc3)c3ccccc3)n2)CC1 [Compound 18], which EC50 is on record?
Answer: 79.9 nM

Question: With O=C(O)COCC1(F)CCN(c2cncc(N(c3ccccc3)c3ccccc3)n2)CC1 [Compound 17] as the compound, how does the EC50 read?
Answer: 0.29 nM

Question: Which EC50 does the source give for O=C(O)COCC1(F)CCN(c2cncc(N(c3ccccc3)c3cccc(F)n3)n2)CC1 [Compound 31] here?
Answer: 1.61 nM

Question: With O=C(O)COCC1CCN(c2cncc(N(c3ccccc3)c3cccc(OC(F)F)c3)n2)CC1 [Compound 14] as the compound, how does the EC50 read?
Answer: 9.65 nM

Question: For O=C(O)COCC1(F)CCN(c2cncc(N(c3ccccc3)c3ccc(F)cn3)n2)CC1 [Compound 32], which EC50 is on record?
Answer: 1.41 nM

Question: How did the EC50 turn out when O=C(O)COCC1CCN(c2cncc(N(c3ccccc3)c3cccc(Cl)c3)n2)CC1 [Compound 12] was run?
Answer: 4.84 nM

Question: With O=C(O)COCC1(F)CCN(c2cncc(N(c3cccc(F)c3)c3ccccn3)n2)CC1 [Compound 27] as the compound, how does the EC50 read?
Answer: 6.74 nM

Question: How did the EC50 turn out when O=C(O)COCC1(F)CCN(c2cncc(N(c3ccccc3)c3cccc(OC(F)F)c3)n2)CC1 [Compound 21] was run?
Answer: 3 nM

Question: Which EC50 does the source give for O=C(O)COCC1(F)CCN(c2cncc(N(c3ccc(Cl)cc3)c3ccc(F)cn3)n2)CC1 [Compound 39] here?
Answer: > 300 nM

Question: How did the EC50 turn out when O=C(O)COCC1(F)CCN(c2cncc(N(c3ccccc3)c3ccccn3)n2)CC1 [Compound 30] was run?
Answer: 3.26 nM

Question: How did the EC50 turn out when O=C(O)COCC1(F)CCN(c2cncc(N(c3ccccc3)c3ccc(Cl)cn3)n2)CC1 [Compound 43] was run?
Answer: 1.07 nM

Question: How did the EC50 turn out when O=C(O)COCC1CCN(c2cncc(N(c3ccccc3)c3ccc(OC(F)F)cc3)n2)CC1 [Compound 13] was run?
Answer: 4.17 nM

Question: How did the EC50 turn out when COc1ccc(N(c2ccccc2)c2cncc(N3CCC(F)(COCC(=O)O)CC3)n2)cc1 [Compound 23] was run?
Answer: 1.1 nM

Question: CCOC(=O)COCC1(F)CCN(c2cncc(N(c3ccccc3)c3ccccc3)n2)CC1 [Compound 19] was tested. Which EC50 did it give?
Answer: 6.11 nM

Question: Which EC50 does the source give for O=C(O)COCC1CC=C(c2cncc(N(c3ccccc3)c3ccc(Cl)cc3)n2)CC1 (stereo not shown) [Compound 47] here?
Answer: 40.1 nM

Question: How did the EC50 turn out when O=C(O)COCC1(F)CCN(c2cncc(C(c3ccccc3)c3ccccc3)n2)CC1 [Compound 50] was run?
Answer: 5.36 nM

Question: Which EC50 does the source give for O=C(O)COCC1CCN(c2ccnc(N(c3ccccc3)c3ccccc3)n2)CC1 [Compound 16] here?
Answer: 23.5 nM

Question: With COc1ccc(N(c2ccccc2)c2cncc(N3CCC(COCC(=O)O)CC3)n2)cc1 [Compound 5] as the compound, how does the EC50 read?
Answer: 3.74 nM

Question: Which EC50 does the source give for O=C(O)COCC1(F)CCN(c2cncc(C(O)(c3ccccc3)c3ccccc3)n2)CC1 [Compound 49] here?
Answer: 81 nM

Question: COc1cccc(N(c2ccccc2)c2cncc(N3CCC(F)(COCC(=O)O)CC3)n2)c1 [Compound 24] was tested. Which EC50 did it give?
Answer: 0.41 nM

Question: For O=C(O)COCC1CCN(c2cncc(N(c3ccccc3)c3ccc(OC(F)(F)F)cc3)n2)CC1 [Compound 6], which EC50 is on record?
Answer: 3.55 nM

Question: With O=C(O)COCC1CCN(c2nccc(N(c3ccccc3)c3ccc(Cl)cc3)n2)CC1 [Compound 2] as the compound, how does the EC50 read?
Answer: 2990 nM

Question: With Cc1ccc(N(c2ccccc2)c2cncc(N3CCC(F)(COCC(=O)O)CC3)n2)nc1 [Compound 45] as the compound, how does the EC50 read?
Answer: 1.55 nM

Question: O=C(O)COCC1CCN(c2cncc(N(c3ccccc3)c3ccc(F)cc3)n2)CC1 [Compound 3] was tested. Which EC50 did it give?
Answer: 2.09 nM

Question: With O=C(O)COCC1(F)CCN(c2cncc(N(c3ccccc3)c3ccc(Cl)cc3)n2)CC1 [Compound 25] as the compound, how does the EC50 read?
Answer: 0.8 nM

Question: For O=C(O)COC[C@H]1CC[C@H](c2cncc(N(c3ccccc3)c3ccccc3)n2)CC1 [Compound 48b], which EC50 is on record?
Answer: 3.72 nM

Question: How did the EC50 turn out when CS(=O)(=O)NC(=O)COCC1(F)CCN(c2cncc(N(c3ccccc3)c3ccc(F)cn3)n2)CC1 [Compound 33] was run?
Answer: 118 nM

Question: COc1cccc(N(c2ccc(F)cn2)c2cncc(N3CCC(F)(COCC(=O)O)CC3)n2)c1 [Compound 29] was tested. Which EC50 did it give?
Answer: 4.19 nM

Question: CS(=O)(=O)NC(=O)COCC1(F)CCN(c2cncc(N(c3ccccc3)c3ccc(F)cc3)n2)CC1 [Compound 36] was tested. Which EC50 did it give?
Answer: 4.97 nM

Question: COc1cccc(N(c2ccccc2)c2cncc(N3CCC(COCC(=O)O)CC3)n2)c1 [Compound 7] was tested. Which EC50 did it give?
Answer: 2.12 nM

Question: Which EC50 does the source give for O=C(O)COC[C@H]1CC[C@@H](c2cncc(N(c3ccccc3)c3ccccc3)n2)CC1 [Compound 48a] here?
Answer: 18 nM

Question: Which EC50 does the source give for O=C(O)COCC1(F)CCN(c2cncc(N(c3ccccc3)c3ccc(OC(F)(F)F)cc3)n2)CC1 [Compound 26] here?
Answer: 3.73 nM

Question: O=C(O)COCC1(F)CCN(c2cncc(N(c3ccccc3)c3cccc(F)c3)n2)CC1 [Compound 22] was tested. Which EC50 did it give?
Answer: 0.22 nM

Question: Which EC50 does the source give for O=C(O)COCC1CCN(c2cncc(N(c3ccccc3)c3ccc(F)c(F)c3)n2)CC1 [Compound 10] here?
Answer: 10.2 nM

Question: With O=C(O)COCC1(F)CCN(c2cncc(N(c3ccccc3)C3CCCCC3)n2)CC1 [Compound 37] as the compound, how does the EC50 read?
Answer: 34.2 nM

Question: How did the EC50 turn out when O=C(O)COCC1(F)CCN(c2cncc(N(c3ccccc3)c3ccc(OC(F)F)cc3)n2)CC1 [Compound 20] was run?
Answer: 1.65 nM

Question: O=C(O)COCC1CCN(c2cncc(N(c3ccccc3)c3cccc(OC(F)(F)F)c3)n2)CC1 [Compound 8] was tested. Which EC50 did it give?
Answer: 38 nM

Question: With O=C(O)COCC1(F)CCN(c2cncc(N(c3ccccc3)c3ccc(F)cc3)n2)CC1 [Compound 35] as the compound, how does the EC50 read?
Answer: 0.43 nM

Question: Which EC50 does the source give for COc1ccc(N(c2ccccc2)c2cncc(N3CCC(F)(COCC(=O)O)CC3)n2)nc1 [Compound 34] here?
Answer: 1.9 nM

Question: With O=C(O)COCC1(F)CCN(c2cncc(N(c3cccc(Cl)c3)c3ccccn3)n2)CC1 [Compound 28] as the compound, how does the EC50 read?
Answer: 2.17 nM

Question: O=C(O)COCC1CCN(c2cncc(N(c3ccccc3)c3cccc(F)c3)n2)CC1 [Compound 9] was tested. Which EC50 did it give?
Answer: 12.8 nM

Question: With O=C(O)COCC1(F)CCN(c2cncc(N(c3ccccc3)c3nccs3)n2)CC1 [Compound 46] as the compound, how does the EC50 read?
Answer: 20.1 nM

Question: Which EC50 does the source give for O=C(O)COCC1CCN(c2cccc(N(c3ccccc3)c3ccccc3)n2)CC1 [Compound 15] here?
Answer: > 2000 nM

Question: O=C(O)COCC1(F)CCN(c2cncc(N(c3ccc(Cl)cc3)c3ccccn3)n2)CC1 [Compound 41] was tested. Which EC50 did it give?
Answer: 2.94 nM

Question: COc1ccc(N(c2ccc(Cl)cc2)c2cncc(N3CCC(F)(COCC(=O)O)CC3)n2)nc1 [Compound 38] was tested. Which EC50 did it give?
Answer: 459 nM

Question: For COc1ccc(N(c2ccccn2)c2cncc(N3CCC(F)(COCC(=O)O)CC3)n2)cc1 [Compound 42], which EC50 is on record?
Answer: 2.63 nM

Question: Which EC50 does the source give for O=C(O)COCC1CCN(c2cncc(N(c3ccccc3)c3ccc(Cl)cc3)n2)CC1 [Compound 1] here?
Answer: 2.02 nM

Question: O=C(O)COCC1CCN(c2cncc(N(c3ccccc3)c3cc(F)cc(F)c3)n2)CC1 [Compound 11] was tested. Which EC50 did it give?
Answer: 123 nM

Question: O=C(O)COCC1CCN(c2cncc(N(c3ccccc3)c3ccccc3)n2)CC1 [Compound 4] was tested. Which EC50 did it give?
Answer: 2.99 nM

Question: Which EC50 does the source give for O=C(O)COCC1(F)CCN(c2cncc(N(c3ccc(F)cc3)c3ccccn3)n2)CC1 [Compound 40] here?
Answer: 3.2 nM
